According to patent US10696985B1, “Reversibly crosslinked endosomolytic polymer vesicles for cytosolic drug delivery” (Vanderbilt University, priority 2016, dated 2020):

Columns and labels:
[1] = Encapsulation efficiency of cargo in PEG-EBP polymer vesicles; details: cGAMP within PEG-EBP vesicles; high performance liquid chromatography
Procedure: Encapsulation efficiency is defined as the percentage of cargo associated with the vesicle after cargo loading and separation of vesicles from unencapsulated cargo. N=number of experiments performed for a specific cargo type.
For formulation of polymeric vesicles, 5 mg of the polymer is mixed with 4 μL of ethanol. Upon equilibration, 4 μL of cGAMP solution (0-50 mg/mL in water) is added to the polymer/ethanol gel. […] Upon formation of vesicles, the colloid is diluted into water and sonicated further to generate the PEG-EBP encapsulated cGAMP colloid.
Solvent composition and stepwise addition amounts were chosen to maximize the vesicle yield of the formulation process while maximizing encapsulant concentration during vesicle self-assembly. […] Particles were crosslinked post assembly via addition of 0.5 molar equivalents of DTT relative to pyidyl disulfide moieties comprising the PEG-EBP colloid. Nanoparticles were readily separated from free cGAMP and crosslinking byproducts via centrifugal ultrafiltration using a 10 kDa cutoff.
Pyridyl disulfide (PDS) moieties were exploited for post-assembly in situ crosslinking of the vesicle membrane via partial reduction of disulfide bonds with DTT.

TLR-2 = target: T1, TLR-2 (Mus musculus, UniProt Q9EPQ1+Q9QUN7); test: RAW264.7 NF-κB reporter cell assay; assay type: cell-based; details: incorporated into the PEG-EBP vesicle membrane, versus free Pam3CSK4
T1 construct: endogenous in cells; host or cells: RAW264.7 NF-kB reporter cells
T1 sequence (Q9QUN7 25-784): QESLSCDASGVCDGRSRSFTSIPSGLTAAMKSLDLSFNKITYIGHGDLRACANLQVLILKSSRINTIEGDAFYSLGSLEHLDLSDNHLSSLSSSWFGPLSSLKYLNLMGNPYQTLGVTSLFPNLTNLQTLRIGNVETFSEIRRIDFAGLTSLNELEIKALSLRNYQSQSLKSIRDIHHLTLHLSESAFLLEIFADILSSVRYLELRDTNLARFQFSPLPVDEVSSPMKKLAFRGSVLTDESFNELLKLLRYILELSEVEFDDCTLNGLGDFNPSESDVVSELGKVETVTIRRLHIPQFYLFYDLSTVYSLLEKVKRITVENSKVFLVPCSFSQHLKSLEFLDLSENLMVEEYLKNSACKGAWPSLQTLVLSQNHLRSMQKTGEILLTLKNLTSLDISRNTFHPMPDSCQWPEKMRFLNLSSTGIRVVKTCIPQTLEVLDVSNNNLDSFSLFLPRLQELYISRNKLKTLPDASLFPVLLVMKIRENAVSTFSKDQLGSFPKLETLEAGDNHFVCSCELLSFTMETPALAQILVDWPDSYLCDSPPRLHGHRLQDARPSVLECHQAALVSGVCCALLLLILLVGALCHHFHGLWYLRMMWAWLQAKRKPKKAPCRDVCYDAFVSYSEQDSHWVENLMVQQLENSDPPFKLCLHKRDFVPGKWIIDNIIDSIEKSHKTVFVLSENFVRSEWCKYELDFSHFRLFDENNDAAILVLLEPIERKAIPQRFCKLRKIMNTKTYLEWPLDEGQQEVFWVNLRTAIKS
T1 sequence (Q9EPQ1 25-795 limits assumed): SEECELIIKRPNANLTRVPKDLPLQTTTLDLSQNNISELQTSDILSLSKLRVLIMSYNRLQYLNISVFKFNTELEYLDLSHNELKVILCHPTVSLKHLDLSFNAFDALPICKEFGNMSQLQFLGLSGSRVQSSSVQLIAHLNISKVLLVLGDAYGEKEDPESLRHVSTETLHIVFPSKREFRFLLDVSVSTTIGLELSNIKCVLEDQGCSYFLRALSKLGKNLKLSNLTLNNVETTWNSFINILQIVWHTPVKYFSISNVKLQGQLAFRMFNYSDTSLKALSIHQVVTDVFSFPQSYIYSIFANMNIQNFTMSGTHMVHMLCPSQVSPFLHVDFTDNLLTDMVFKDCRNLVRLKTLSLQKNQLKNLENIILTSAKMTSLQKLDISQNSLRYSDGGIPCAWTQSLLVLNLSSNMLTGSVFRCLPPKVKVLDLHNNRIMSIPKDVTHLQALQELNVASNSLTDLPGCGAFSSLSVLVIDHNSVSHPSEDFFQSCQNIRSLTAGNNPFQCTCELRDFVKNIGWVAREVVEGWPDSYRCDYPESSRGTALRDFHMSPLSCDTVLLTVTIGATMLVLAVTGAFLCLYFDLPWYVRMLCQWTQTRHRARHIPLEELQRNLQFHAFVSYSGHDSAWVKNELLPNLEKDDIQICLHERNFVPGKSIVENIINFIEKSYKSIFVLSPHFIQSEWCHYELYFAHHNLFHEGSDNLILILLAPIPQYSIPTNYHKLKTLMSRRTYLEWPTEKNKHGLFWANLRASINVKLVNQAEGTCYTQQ
Excerpt: PEG-EBP polymer vesicles were also shown to serve as a carrier for agonists of pattern recognition receptors (PRRs) that reside on the cell surface. […] The reduced activity of Pam3CSK4 incorporated into vesicles is thought to be primarily related to the ˜50% of Pam3CSK4 molecules that are incorporated into the inner leaflet of the vesicle membrane, and therefore are not accessible for binding to cell surface TLR-2 molecules.

Molecule	encapsulation efficiency [1] [%]	immunostimulatory activity (TLR-2)
Nc1nc2c(ncn2[C@@H]2O[C@@H]3COP(=O)(O)O[C@H]4[C@@H](O)[C@H](n5cnc6c(N)ncnc65)O[C@@H]4COP(=O)(O)O[C@@H]2[C@@H]3O)c(=O)[nH]1 [cGAMP, cyclic guanosine monophosphate-adenosine monophosphate]	38±3	
Pam3CSK4		partially retained
